Columns and labels:
COLO 205 = experiment: Cytotoxicity against human COLO205 cells by SRB assay; format: functional
HOP-62 = experiment: Cytotoxicity against human HOP62 cells by SRB assay; format: functional
SR = experiment: Cytotoxicity against human SR cells by SRB assay; format: functional
OVCAR-4 = experiment: Cytotoxicity against human OVCAR4 cells by SRB assay; format: functional
MCF7 = experiment: Cytotoxicity against human MCF7 cells by SRB assay; format: functional
NCI-H226 = experiment: Cytotoxicity against human NCI-H226 cells by SRB assay; format: functional
[1] = Cytotoxicity against human prostate cancer cells by SRB assay; format: functional; conditions: Cancer cell lines
MDA-MB-231 = experiment: Cytotoxicity against human MDA-MB-231 cells by SRB assay; format: functional
SF-268 = experiment: Cytotoxicity against human SF268 cells by SRB assay; format: functional
SK-MEL-28 = experiment: Cytotoxicity against human SK-MEL-28 cells by SRB assay; format: functional
SNB-75 = experiment: Cytotoxicity against human SNB75 cells by SRB assay; format: functional
ACHN = experiment: Cytotoxicity against human ACHN cells by SRB assay; format: functional
HT-29 = experiment: Cytotoxicity against human HT29 cells by SRB assay; format: functional
LOX IMVI = experiment: Cytotoxicity against human LOXIMVI cells by SRB assay; format: functional
PC-3 = experiment: Cytotoxicity against human PC3 cells by SRB assay; format: functional
RXF 393 = experiment: Cytotoxicity against human RXF393 cells by SRB assay; format: functional
MDA-MB-435 = experiment: Cytotoxicity against human MDA-MB-435 cells by SRB assay; format: functional
[2] = Cytotoxicity against human breast cancer cells by SRB assay; format: functional; conditions: Cancer cell lines
SK-OV-3 = experiment: Cytotoxicity against human SKOV3 cells by SRB assay; format: functional
[3] = Cytotoxicity against human 786-O cells by SRB assay; format: functional; conditions: 786-0
A498 = experiment: Cytotoxicity against human A498 cells by SRB assay; format: functional
OVCAR-5 = experiment: Cytotoxicity against human OVCAR5 cells by SRB assay; format: functional
NCI-H23 = experiment: Cytotoxicity against human NCI-H23 cells by SRB assay; format: functional
NCI-H322M = experiment: Cytotoxicity against human NCI-H322M cells by SRB assay; format: functional
RPMI-8226 = experiment: Cytotoxicity against human RPMI8226 cells by SRB assay; format: functional
M14 = experiment: Cytotoxicity against human M14 cells by SRB assay; format: functional
[4] = Cytotoxicity against human ovarian cancer cells by SRB assay; format: functional; conditions: Cancer cell lines
NCI-H522 = experiment: Cytotoxicity against human NCI-H522 cells by SRB assay; format: functional
UACC-62 = experiment: Cytotoxicity against human UACC62 cells by SRB assay; format: functional
CAKI-1 = experiment: Cytotoxicity against human Caki1 cells by SRB assay; format: functional
SK-MEL-2 = experiment: Cytotoxicity against human SK-MEL-2 cells by SRB assay; format: functional
A549 = experiment: Cytotoxicity against human A549 cells by SRB assay; format: functional
OVCAR-8 = experiment: Cytotoxicity against human OVCAR8 cells by SRB assay; format: functional
SW-620 = experiment: Cytotoxicity against human SW620 cells by SRB assay; format: functional
CCRF-CEM = experiment: Cytotoxicity against human CCRF-CEM cells by SRB assay; format: functional
MOLT-4 = experiment: Cytotoxicity against human MOLT4 cells by SRB assay; format: functional
OVCAR-3 = experiment: Cytotoxicity against human OVCAR-3 cells by SRB assay; format: functional
EKVX = experiment: Cytotoxicity against human EKVX cells by SRB assay; format: functional
SN12C = experiment: Cytotoxicity against human SN12C cells by SRB assay; format: functional
KM12 = experiment: Cytotoxicity against human KM12 cells by SRB assay; format: functional
HCT-116 = experiment: Cytotoxicity against human HCT116 cells by SRB assay; format: functional
[5] = Cytotoxicity against human melanoma cells by SRB assay; format: functional; conditions: Melanoma cell
HCC 2998 = experiment: Cytotoxicity against human HCC2998 cells by SRB assay; format: functional
U-251 = experiment: Cytotoxicity against human U251 cells by SRB assay; format: functional
[6] = Cytotoxicity against human Hs 578T cells by SRB assay; format: functional
SNB-19 = experiment: Cytotoxicity against human SNB19 cells by SRB assay; format: functional
[7] = Cytotoxicity against human CNS cancer cells by SRB assay; format: functional; conditions: Cancer cell lines
UACC-257 = experiment: Cytotoxicity against human UACC257 cells by SRB assay; format: functional
HCT-15 = experiment: Cytotoxicity against human HCT15 cells by SRB assay; format: functional
[8] = Cytotoxicity against human MCF7/ADR cells by SRB assay; format: functional; conditions: NCI/ADR-RES
NCI-H460 = experiment: Cytotoxicity against human NCI-H460 cells by SRB assay; format: functional
[9] = Cytotoxicity against human renal cancer cells by SRB assay; format: functional; conditions: Cancer cell lines
T47D = experiment: Cytotoxicity against human T47D cells by SRB assay; format: functional
NSCLC = experiment: Cytotoxicity against human NSCLC cells by SRB assay; format: functional
Malme-3M = experiment: Cytotoxicity against human MALME-3M cells by SRB assay; format: functional
SK-MEL-5 = experiment: Cytotoxicity against human SK-MEL-5 cells by SRB assay; format: functional
HOP-92 = experiment: Cytotoxicity against human HOP92 cells by SRB assay; format: functional
UO-31 = experiment: Cytotoxicity against human UO31 cells by SRB assay; format: functional
BT-549 = experiment: Cytotoxicity against human BT549 cells by SRB assay; format: functional
IGROV-1 = experiment: Cytotoxicity against human IGROV1 cells by SRB assay; format: functional
SF-295 = experiment: Cytotoxicity against human SF295 cells by SRB assay; format: functional
[10] = Cytotoxicity against human HL60(TB) cells by SRB assay; format: functional, HL-60(TB); conditions: HL-60
K562 = experiment: Cytotoxicity against human K562 cells by SRB assay; format: functional
MDA-N = experiment: Cytotoxicity against human MDA-N cells by SRB assay; format: functional
DU-145 = experiment: Cytotoxicity against human DU145 cells by SRB assay; format: functional
Leukemia cell = experiment: Cytotoxicity against human Leukemia cells by SRB assay; format: functional
[11] = Cytotoxicity against human Colon cancer cells by SRB assay; format: functional; conditions: Cancer cell lines

Compound `C=C(C)[C@@H](O)[C@H](O)C[C@H](C)[C@@H]1CC[C@]2(C)C1=CC[C@@H]1[C@@]3(C)CC[C@@H](OC(C)=O)C(C)(C)[C@@H]3C[C@@H](O[C@@H]3O[C@H](COC(C)=O)[C@@H](O)[C@H](O)[C@H]3O)[C@]12C` has a GI50 (COLO 205) of 2040 nM, a TGI (COLO 205) of 3500 nM and a GI50 (HOP-62) of 2630 nM. For the same compound, the GI50 (SR) was 1910 nM, the GI50 (OVCAR-4) was 2950 nM and the GI50 (MCF7) was 2750 nM. For the same compound, the GI50 (NCI-H226) was 3020 nM, the TGI [1] was 7000 nM and the GI50 (MDA-MB-231) was 1860 nM. The GI50 (SF-268) was 2820 nM, the GI50 (SK-MEL-28) was 2340 nM and the GI50 (SNB-75) was 1860 nM. For the same compound, the GI50 (ACHN) was 1910 nM, the GI50 (HT-29) was 1910 nM and the TGI (HT-29) was 3800 nM. The GI50 (LOX IMVI) was 1620 nM, the GI50 (PC-3) was 2140 nM and the GI50 (RXF 393) was 2090 nM. For the same compound, the GI50 (MDA-MB-435) was 1950 nM, the TGI [2] was 10700 nM and the GI50 (SK-OV-3) was 2880 nM. For the same compound, the GI50 [3] was 3720 nM, the GI50 (A498) was 3890 nM and the GI50 (OVCAR-5) was 1910 nM. It also gave a GI50 (NCI-H23) of 4170 nM, a GI50 (NCI-H322M) of 1860 nM and a GI50 (RPMI-8226) of 1910 nM. For the same compound, the GI50 (M14) was 2090 nM, the TGI [4] was 7400 nM and the GI50 (NCI-H522) was 1820 nM. The GI50 (UACC-62) was 1510 nM, the GI50 (CAKI-1) was 2630 nM and the GI50 (SK-MEL-2) was 2000 nM. It also gave a GI50 (A549) of 3240 nM, a GI50 (OVCAR-8) of 3630 nM and a GI50 (SW-620) of 3020 nM. It also gave a TGI (SW-620) of 10400 nM, a GI50 (CCRF-CEM) of 2240 nM and a GI50 (MOLT-4) of 2290 nM. The GI50 (OVCAR-3) was 1860 nM, the GI50 (EKVX) was 3160 nM and the GI50 (SN12C) was 3090 nM. It also gave a GI50 (KM12) of 1580 nM, a TGI (KM12) of 3000 nM and a GI50 (HCT-116) of 1860 nM. It also gave a TGI (HCT-116) of 3500 nM, a TGI [5] of 4200 nM and a GI50 (HCC 2998) of 77.6 nM. For the same compound, the TGI (HCC 2998) was 900 nM, the GI50 (U-251) was 2190 nM and the GI50 [6] was 2340 nM. For the same compound, the GI50 (SNB-19) was 3890 nM, the TGI [7] was 9500 nM and the GI50 (UACC-257) was 2750 nM. For the same compound, the GI50 (HCT-15) was 2950 nM, the TGI (HCT-15) was 10000 nM and the GI50 [8] was 16200 nM. The GI50 (NCI-H460) was 2450 nM, the TGI [9] was 9700 nM and the GI50 (T47D) was 2570 nM. The TGI (NSCLC) was 9000 nM, the GI50 (Malme-3M) was 1580 nM and the GI50 (SK-MEL-5) was 1910 nM. The GI50 (HOP-92) was 2340 nM, the GI50 (UO-31) was 3890 nM and the GI50 (BT-549) was 3390 nM. The GI50 (IGROV-1) was 2340 nM, the GI50 (SF-295) was 2190 nM and the GI50 [10] was 2090 nM. For the same compound, the GI50 (K562) was 1910 nM, the GI50 (MDA-N) was 2340 nM and the GI50 (DU-145) was 2570 nM. It also gave a TGI (Leukemia cell) of 5100 nM and a TGI [11] of 5000 nM.
